In patent US9488914B2, “Fluorine-containing sulfonic acid salt, fluorine-containing sulfonic acid salt resin, resist composition, and pattern forming method using same” (Central Glass Company, Limited, priority 2012, dated 2016):

Test: Solubility of polymerizable fluorine-containing sulfonic acid onium salts in PGMEA
Conditions: amount (g) of polymerizable monomer dissolved in 100 g of PGMEA

| Solubility [g/100 g] | Molecule |
| --- | --- |
| 38 | C=C(COCC(F)(F)S(=O)(=O)O)C(=O)OC1CCOC1=O (stereo not shown) [PAG-1, Triphenylsulfonium 2-[2-(2-oxotetrahydrofuran-3-yloxycarbonyl)-2-methyleneethoxy]-1,1-difluoroethanesulfonate] |
| 55 | C=C(COCC(F)(F)S(=O)(=O)O)C(=O)OC1CC(C(O)(C(F)(F)F)C(F)(F)F)CC(C(O)(C(F)(F)F)C(F)(F)F)C1 (stereo not shown) [PAG-3, Diphenyl-p-tolylsulfonium 2-[2-(3,5-bis(hexafluoro-2-hydroxypropan-2-yl)cyclohexyloxycarbonyl)-2-methyleneethoxy]-1,1-difluoroethanesulfonate] |
| 42 | C=C(COCCC(F)(F)C(F)(F)S(=O)(=O)O)C(=O)Oc1ccc2sc(=O)oc2c1 [PAG-8] |
| 42 | C=C(COCCCC(F)(F)S(=O)(=O)O)C(=O)OC1CC2CC1C1COC(=O)C21 (stereo not shown) [PAG-15, [(4-trifluoromethyl)phenyl]diphenylsulfonium 4-(4-oxa-tricyclo[5.2.1.0(2,6)]decan-3-on-8-yloxycarbonyl-2-methylene-ethoxy)-1,1-difluorobutanesulfonate] |

| Molecule | Solubility [g/100 g] |
| --- | --- |
| C=C(COCCC(F)(F)C(F)(F)S(=O)(=O)[O-])C(=O)OC1CC2CC1CC2CC(OC(C)=O)(C(F)(F)F)C(F)(F)F.c1ccc(-[s+]2c3ccccc3c3ccccc32)cc1 (stereo not shown) [PAG-2, Phenyldibenzothiophenium 4-[2-(3,3,3-trifluoro-2-acetyloxy-2-(trifluoromethyl)propyl)bicyclo[2.2.1]hepta-2-yloxycarbonyl-2-methyleneethoxy]-1,1,2,2-tetrafluorobutanesulfonate] | 50 |
| C=C(COC(CCCC)C(F)(F)S(=O)(=O)[O-])C(=O)Oc1ccc(C(O)(C(F)(F)F)C(F)(F)F)cc1.Cc1ccc([S+](c2ccc(C)cc2)c2ccc(C)cc2)cc1 (stereo not shown) [PAG-11, Tri-p-tolylsulfonium 2-[4-(2,2,2-trifluoro-1-hydroxy-1-(trifluoromethyl)ethylphenoxycarbonyl)-2-methylene-ethoxy]-1,1-difluorohexanesulfonate] | 45 |
| Triphenylsulfonium 2-[2-(1,1,1-trifluoro-2-hydroxy-2-(trifluoromethyl)penta-5-yloxycarbonyl)-2-methyleneethoxy]-1,1-difluoroethanesulfonate [PAG-13] | 47 |
